Patent EP0765320B1, “BENZIMIDAZOLONE DERIVATIVES WITH CENTRAL DOPAMINERGIC ACTIVITY” (PFIZER INC., priority 1994, dated 1995)
pIC50: −log10 of the molar value.

Columns and labels:
[1] = biological target: T1, human dopamine D4 receptor (Homo sapiens, UniProt P21917); experiment: D4 dopaminergic activity: [3H]Spiperone competition binding (assay similar to the one described); conditions: assay similar to the [3H]Spiperone binding assay on clonal cell lines expressing the human dopamine D4 receptor
T1 construct: expressed in transfected cells
T1 sequence (P21917 1-419): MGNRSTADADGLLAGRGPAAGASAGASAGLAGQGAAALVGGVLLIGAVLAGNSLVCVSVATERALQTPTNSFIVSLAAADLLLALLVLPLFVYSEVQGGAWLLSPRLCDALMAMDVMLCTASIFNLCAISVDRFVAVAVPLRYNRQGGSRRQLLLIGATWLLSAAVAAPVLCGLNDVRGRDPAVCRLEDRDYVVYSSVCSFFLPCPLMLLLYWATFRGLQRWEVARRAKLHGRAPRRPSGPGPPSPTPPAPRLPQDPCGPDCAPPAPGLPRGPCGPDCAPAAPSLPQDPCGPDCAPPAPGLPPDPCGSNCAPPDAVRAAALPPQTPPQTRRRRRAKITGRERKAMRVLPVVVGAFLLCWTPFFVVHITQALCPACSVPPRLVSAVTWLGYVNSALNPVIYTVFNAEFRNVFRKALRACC
Procedure: The D4 dopaminergic activity of the compounds of the present invention may be determined by the following procedure.
(§1) The determination of D4 dopaminergic activity has been described by Van Tol et al., Nature, vol. 350, 610 (London, 1991). Clonal cell lines expressing the human dopamine D4 receptor are harvested and homogenized (teflon pestle) in a 50 mM Tris:HCI (pH 7.4 at 4°C) buffer containing 5 mM EDTA, 1.5 mM calcium chloride (CaCl2), 5 mM magnesium chloride (MgCL2), 5mM potassium chloride (KCI) and 120 mM sodium chloride (NaCI). The homogenates are centrifugated for 15 min. at 39,000 g, and the resulting pellets resuspended in a buffer at a concentration of 150-250 µg/ml. For saturation experiments, 0.25 ml aliquots of tissue homogenate are incubated in duplicate with increasing concentrations of [^3H] Spiperone (70.3 Ci/mmol; 10-3000 pM final concentration) for 30-120 minutes at 22°C in a total volume of 1 ml. […] Assays are terminated by rapid filtration through a Titertek cell harvester and the filters subsequently monitored for tritium as described by Sunahara, R.K. et al., Nature, 346, 76-80 (1990). […] Both saturation and competition binding data are analyzed by the non-linear least square curve-fitting program Ligand run on a digital Micro-PP-11 as described by Sunahara et al.

[2] = biological target: D2 receptor (Homo sapiens, UniProt P14416); experiment: D2 receptor binding in an assay similar to the D4 [3H]Spiperone binding assay; conditions: assay similar to the described [3H]Spiperone binding assay
Sequence of D2 receptor (P14416 whole entry): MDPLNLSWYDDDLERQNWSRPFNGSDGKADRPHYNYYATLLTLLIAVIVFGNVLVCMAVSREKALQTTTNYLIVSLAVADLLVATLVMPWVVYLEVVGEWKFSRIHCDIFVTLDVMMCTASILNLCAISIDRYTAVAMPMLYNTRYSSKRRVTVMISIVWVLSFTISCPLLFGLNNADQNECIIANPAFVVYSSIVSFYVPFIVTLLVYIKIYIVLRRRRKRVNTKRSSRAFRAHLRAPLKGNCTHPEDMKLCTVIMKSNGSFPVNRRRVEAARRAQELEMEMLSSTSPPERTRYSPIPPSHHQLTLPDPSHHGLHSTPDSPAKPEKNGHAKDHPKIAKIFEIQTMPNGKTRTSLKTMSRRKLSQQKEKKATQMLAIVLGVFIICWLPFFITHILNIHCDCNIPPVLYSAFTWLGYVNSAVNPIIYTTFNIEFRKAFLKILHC
Procedure: as §1

Row | pIC50 [1] | pIC50 [2] | SMILES
1 | ≥ 6.96 | 5.48 to 6.00 | O=c1[nH]c2ccccc2n1CCCN1CCN(c2ccc(Cl)cn2)CC1 [Example 1, 1-{3-[4-(5-Chloro-pyridin-2-yl)-piperazin-1-yl]-propyl}-1,3-dihydrobenzoimidazol-2-one]
2 | ≥ 6.96 | 5.48 to 6.00 | O=c1[nH]c2ccccc2n1CCCN1CCN(c2ccc(C(F)(F)F)cn2)CC1 [Example 4, 1-{3-[4-(5-Trifluoromethyl-pyridin-2-yl)-piperazine-1-yl]-propyl}-1,3-dihydrobenzoimidazol-2-one]
